Test results as given in PubChem BioAssay (NCI).
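GI50 is the concentration that inhibits growth by half. Definition used: TGI = concentration required for complete inhibition of growth.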

Legend:
Test in all cases: growth of human tumour cells (NCI), 384-well format
[1] = test system: IGROV1 ovarian
[2] = test system: A498 renal
[3] = test system: OVCAR-3 ovarian
[4] = test system: HT29 colon
[5] = test system: 786-0 renal
[6] = test system: SK-MEL-5 melanoma
[7] = test system: SK-MEL-28 melanoma
[8] = test system: RXF 393 renal
[9] = test system: EKVX NSCLC
[10] = test system: CAKI-1 renal
[11] = test system: SK-OV-3 ovarian
[12] = test system: NCI-H460 NSCLC
[13] = test system: K-562 leukemia
[14] = test system: NCI-H522 lung
[15] = test system: MDA-MB-435 melanoma
[16] = test system: RPMI-8226 leukemia
[17] = test system: OVCAR-8 ovarian
[18] = test system: SF-539 CNS
[19] = test system: UACC-62 melanoma
[20] = test system: SF-268 CNS
[21] = test system: UO-31 renal
[22] = test system: LOX IMVI melanoma
[23] = test system: MOLT-4 leukemia
[24] = test system: UACC-257 melanoma
[25] = test system: HL-60(TB) leukemia
[26] = test system: KM12 colon
[27] = test system: SF-295 CNS
[28] = test system: MDA-MB-468 breast
[29] = test system: SK-MEL-2 melanoma
[30] = test system: CCRF-CEM leukemia
[31] = test system: OVCAR-4 ovarian
[32] = test system: HCT-116 colon
[33] = test system: BT-549 breast
[34] = test system: MDA-MB-231 breast
[35] = test system: HS 578T breast
[36] = test system: MALME-3M melanoma
[37] = test system: NCI-H226 lung
[38] = test system: COLO 205 colon
[39] = test system: T-47D breast
[40] = test system: SR leukemia
[41] = test system: MCF7 breast
[42] = test system: HOP-62 NSCLC
[43] = test system: DU-145 prostate
[44] = test system: TK-10 renal
[45] = test system: HOP-92 NSCLC
[46] = test system: U251 glioblastoma
[47] = test system: ACHN renal

Cc1ccc2c(Nc3cccc(Cl)c3F)ncc(NC(=O)c3csc4c(N)ncnc34)c2c1
GI50 [1]: 1600 nM
TGI [1]: 97.9 µM
GI50 [2]: 3.07 µM
TGI [2]: 43 µM
GI50 [3]: 22.2 µM
TGI [3]: 84.7 µM
GI50 [4]: 127 nM
TGI [4]: > 100 µM
GI50 [5]: 22.2 µM
TGI [5]: > 100 µM
GI50 [6]: 51.8 nM
TGI [6]: 23.1 µM
GI50 [7]: 17.9 nM
TGI [7]: 92.3 nM
GI50 [8]: 968 nM
TGI [8]: 95.7 µM
GI50 [9]: 10.8 µM
TGI [9]: > 100 µM
GI50 [10]: 577 nM
TGI [10]: > 100 µM
GI50 [11]: 27 µM
TGI [11]: > 100 µM
GI50 [12]: 13 µM
TGI [12]: > 100 µM
GI50 [13]: 592 nM
TGI [13]: > 100 µM
GI50 [14]: 13.1 µM
TGI [14]: 59 µM
GI50 [15]: 48.1 nM
TGI [15]: 55 µM
GI50 [16]: 1600 nM
TGI [16]: 18.5 µM
GI50 [17]: 13.2 µM
TGI [17]: 43.1 µM
GI50 [18]: 29.1 µM
TGI [18]: > 100 µM
GI50 [19]: 25.1 nM
TGI [19]: 209 nM
GI50 [20]: 21.9 µM
TGI [20]: 73.7 µM
GI50 [21]: 258 nM
TGI [21]: > 100 µM
GI50 [22]: 41.8 nM
TGI [22]: 1180 nM
GI50 [23]: 21.8 µM
TGI [23]: > 100 µM
GI50 [24]: 66.8 nM
TGI [24]: 569 nM
GI50 [25]: 15.9 nM
TGI [25]: 12.8 µM
GI50 [26]: 540 nM
TGI [26]: 99.4 µM
GI50 [27]: 93.7 µM
TGI [27]: > 100 µM
GI50 [28]: 18.3 µM
TGI [28]: 52.4 µM
GI50 [29]: 34.6 nM
TGI [29]: 148 nM
GI50 [30]: 15 µM
TGI [30]: 34.5 µM
GI50 [31]: 44.6 µM
TGI [31]: > 100 µM
GI50 [32]: 162 nM
TGI [32]: 19.8 µM
GI50 [33]: 22.8 µM
TGI [33]: > 100 µM
GI50 [34]: 19.5 nM
TGI [34]: 16.3 µM
GI50 [35]: 931 nM
TGI [35]: 63.4 µM
GI50 [36]: 12.4 nM
TGI [36]: 43.6 nM
GI50 [37]: 978 nM
TGI [37]: > 100 µM
GI50 [38]: 24.2 nM
TGI [38]: 19.3 µM
GI50 [39]: 19.5 µM
TGI [39]: > 100 µM
GI50 [40]: 15.1 µM
TGI [40]: 82.8 µM
GI50 [41]: 7.47 µM
TGI [41]: > 100 µM
GI50 [42]: 11.5 µM
TGI [42]: > 100 µM
GI50 [43]: 22 µM
TGI [43]: > 100 µM
GI50 [44]: 8.61 µM
TGI [44]: 75.8 µM
GI50 [45]: 542 nM
TGI [45]: 7.97 µM
GI50 [46]: 22.3 µM
TGI [46]: > 100 µM
GI50 [47]: 12.7 µM
TGI [47]: > 100 µM
